Several values for one entry are separate records, joined by “and”; a condition that tells them apart may be missing. Equal values may be shown once.
Tests used:
[1] = test system: H275Y mutated (oseltamivir-resistant) influenza A/H1N1pdm09 virus; details: human, in vivo
[2] = test system: oseltamivir and peramivir-resistant influenza A/H1N1pdm09; details: five cases, treatment with oseltamivir or peramivir; cited from earlier work
[3] = target: neuraminidase of H275Y mutated influenza A/H1N1pdm09 virus isolates (Influenza A virus (H1N1pdm09), UniProt C3W5S3, H275Y); format: biochemical; details: read-out: 50% inhibitory concentration

Compound | Time to fever alleviation [1] [h] | Time until fever subsided from the start of treatment [2] [h] | also measured
[H]/N=C(\N)N[C@H]1C=C(C(=O)O)O[C@@H]([C@H](OC)[C@H](O)CO)[C@@H]1NC(C)=O [Laninamivir, laninamivir] | ≤ 48 |  | 
CCOC(=O)C1=C[C@@H](OC(CC)CC)[C@H](NC(C)=O)[C@@H](N)C1 [Oseltamivir, oseltamivir] |  | ≤ 48 | Average fever duration [1]: 89 h and 89 ± 47 h; Patients with fever alleviated within 48 hours [1]: 40%; Patients with prolonged fever, which continued for more than 100 hours [1]: 60%
CC(=O)N[C@H]1[C@H]([C@H](O)[C@H](O)CO)OC(C(=O)O)=C[C@@H]1N=C(N)N [Zanamivir, zanamivir] | ≤ 48 |  | 
peramivir |  | ≤ 48 | IC50 [3]: 24.7 nM and 22.1 nM and 29.8 nM and 19.1 nM and 18.7 nM and 22.4 nM and 23.3 nM

From article PMC6837752, “Effectiveness of four types of neuraminidase inhibitors approved in Japan for the treatment of influenza” (PLoS ONE, 2019)
